A short description of one series: in vitro. In kind it is cell-based. The settings on record: human, Inhibitory Concentration at 50% Cytotoxicity (IC50) Human Liver Cells (HepG2). The method, then: Cell culture: RPTEC were maintained in MEM media supplemented with growth factors. HEPG2 cell line was maintained in Eagle's Minimum Essential Medium (EMEM) supplemented with fetal bovine serum to a final concentration of 10%.
48 hours cytotoxicity assay: Cells were plated in a 96-well format, and after 4 hour incubation to allow attachment, serial dilutions of StAMPs from a 5 mg/mL water stock, or vehicle, were then added to the cells in a final volume of 100 μl. After incubating at 37° C. for 48 hours, 100 μl of CellTiter-Glo® reagent was added to the cells, and the plates were incubated 10 minutes at room temperature. Luminescence was then measured on a microplate reader.
(§1) Renal toxicity was measured after 90 minutes of incubation, while liver toxicity was measured after 48 hours of incubation with StAMPs. N/A=not tested. The following apply to all peptides (i.e., StAMPs) listed in Tables A-C: Crosslinks (X^1—X^2 and X^3—X^4): (alk); N-terminus: —NH2; C-terminus: amidated with —NH2; counterion: Cl^−. The following apply to all peptides (i.e., StAMPs) listed in Table D: Crosslinks (X^1—X^2 and X^3—X^4): (alk); N-terminus: —NH2; C-terminus: as shown in table; counterion: Cl^−.

Another series has as its system P. aeruginosa. It is filed as cell-based, Pseudomonas aeruginosa. The protocol: (§2) Antimicrobial Activity Assay: The following microbroth dilution protocol was adapted from CLSI to determine the minimum inhibitory concentration (MIC) of StAMPs. Briefly, Mueller-Hinton broth (MHB) or cation-adjusted Mueller-Hinton broth (MHB II) was prepared and autoclaved. Then, a colony of bacterial cells was picked and grown overnight in broth at 37° C. and then diluted and allowed to grow again for 3-4 hours. Serial dilutions of peptide stocks in water (10 μl) were prepared using clear round-bottom polypropylene 96-well plates. Then 90 μl of bacteria in broth was added to give a final inoculum of 5×10^5 CFU/ml. The plates were then covered with porous tape to reduce evaporation and incubated for 20-24 hours at 37° C. The MIC was the minimum peptide concentration at which no visible bacterial growth was observed.
as §1
StAMP Micelle Formulation: DSPE-MPEG(2000) was suspended in buffered saline at 50-100 mg/mL overnight. StAMP stock solutions at 5-20 mg/mL in buffered saline were prepared and equal volumes of micelle and StAMP stock solution were mixed at the desired StAMP:Lipid ratio. Suspensions were allowed to sit for 5-10 minutes at room temperature before being used in in vitro and in vivo assays. […]

The next series concerns K. pneumoniae. In kind it is cell-based, Klebsiella pneumoniae. The protocol: as §2, §1
For another series, the system named is S. aureus. It is filed as cell-based, Staphylococcus aureus. The protocol: as §2, §1
A further series deals with A. baumannii. It is filed as cell-based, Acinetobacter baumannii. The method, then:
as §2, §1

The test system of a further series is E. coli. In kind it is cell-based, Escherichia coli. The method, then: as §2, §1

Structures are written as SMILES. Values after ≈ are worked out from the molar mass of the structure shown. Positions of bridges follow the written chain, without caps; N, C: chain ends. Non-standard residues stand in square brackets, D forms with d. Residues, ends and D or L forms follow the SMILES beside them. S5 = C=CCCC[C@](C)(N)C(=O)O; Dap = NC[C@H](N)C(=O)O

Broadly, the IC50 is the concentration at which inhibition is half-maximal. As to `CC(C)[C@@H]1NC(=O)[C@@](C)(NC(=O)[C@H](C)NC(=O)[C@H](CCCCN)NC(=O)CNC(=O)[C@H](Cc2ccccc2)NC(=O)[C@H](CCCCN)NC(=O)[C@H](CCCCN)NC(=O)[C@H](CCCCN)NC(=O)[C@H](CCCCN)NC(=O)[C@H](CCCCN)NC(=O)[C@]2(C)CCCC=CCCC[C@](C)(NC(=O)CN)C(=O)NCC(=O)N[C@@H](CCCCN)C(=O)N[C@@H](Cc3ccccc3)C(=O)N2)CCCC=CCCC[C@@](C)(C(=O)N[C@@H](C)C(=O)N[C@@H](CCCCN)C(=O)N[C@@H](CCCCN)C(=O)NCC(=O)NCC(=O)NCC(=O)N[C@@H](CCC(=O)O)C(N)=O)NC(=O)[C@H](CCC(=O)O)NC(=O)CNC1=O` [compound 54] (H-G[S5]GKF[S5]KKKKKFGKA[S5]VGE[S5]AKKGGGE-NH2; staple 2-6, 16-20), it took 262 µg/mL (≈ 91.5 µM) to reach half-maximal inhibition in “in vitro” (IC50 at 48 hours). Also, the “Minimum Inhibitory Concentration (MIC) P. aeruginosa” value in the series with P. aeruginosa is 8 µg/mL. In addition, the “Minimum Inhibitory Concentration (MIC) K. pneumoniae” value in the series on K. pneumoniae was 32 µg/mL. The “Minimum Inhibitory Concentration (MIC) S. aureus” value with S. aureus is above 64 µg/mL. Also, in the series with A. baumannii, the “Minimum Inhibitory Concentration (MIC) A. baumannii” value was 4 µg/mL. The “Minimum Inhibitory Concentration (MIC) E. coli” value in the series on E. coli was determined as 8 µg/mL.
Regarding `CC(C)[C@@H]1NC(=O)[C@@](C)(NC(=O)[C@H](C)NC(=O)[C@H](CCCCN)NC(=O)CNC(=O)[C@H](Cc2ccccc2)NC(=O)[C@H](CCCCN)NC(=O)[C@H](CCCCN)NC(=O)[C@H](CCCCN)NC(=O)[C@H](CCCCN)NC(=O)[C@H](CCCCN)NC(=O)[C@]2(C)CCCC=CCCC[C@](C)(NC(=O)CN)C(=O)NCC(=O)N[C@@H](CCCCN)C(=O)N[C@@H](Cc3ccccc3)C(=O)N2)CCCC=CCCC[C@@](C)(C(=O)N[C@@H](C)C(=O)N[C@@H](CCCCN)C(=O)N[C@@H](CCCCN)C(=O)NCC(=O)NCC(=O)N[C@@H](CCC(=O)O)C(=O)N[C@@H](CCC(=O)O)C(N)=O)NC(=O)[C@H](CCC(=O)O)NC(=O)CNC1=O` [compound 55] (H-G[S5]GKF[S5]KKKKKFGKA[S5]VGE[S5]AKKGGEE-NH2; staple 2-6, 16-20), the IC50 at 48 hours in the series “in vitro” stood at 207 µg/mL (≈ 70.5 µM). Further, the “Minimum Inhibitory Concentration (MIC) P. aeruginosa” value with P. aeruginosa was found to be 16 µg/mL. For the same compound, in the series with K. pneumoniae, the “Minimum Inhibitory Concentration (MIC) K. pneumoniae” value turned out to be 64 µg/mL. Moreover, the “Minimum Inhibitory Concentration (MIC) S. aureus” value with S. aureus was above 64 µg/mL. Moreover, the “Minimum Inhibitory Concentration (MIC) A. baumannii” value in the series on A. baumannii worked out at 8 µg/mL. In addition, the “Minimum Inhibitory Concentration (MIC) E. coli” value in the series on E. coli was found to be 16 µg/mL.
Consider `CC(C)[C@@H]1NC(=O)[C@@](C)(NC(=O)[C@H](C)NC(=O)[C@H](CCCCN)NC(=O)CNC(=O)[C@H](Cc2ccccc2)NC(=O)[C@H](CCCCN)NC(=O)[C@H](CCCCN)NC(=O)[C@H](CCCCN)NC(=O)[C@H](CCCCN)NC(=O)[C@H](CN)NC(=O)[C@]2(C)CCCC=CCCC[C@](C)(NC(=O)CN)C(=O)NCC(=O)N[C@@H](CCCCN)C(=O)N[C@@H](Cc3ccccc3)C(=O)N2)CCCC=CCCC[C@@](C)(C(=O)N[C@@H](C)C(=O)N[C@@H](CCCCN)C(=O)N[C@@H](CCCCN)C(=O)NCC(=O)NCC(=O)N[C@@H](CCC(=O)O)C(N)=O)NC(=O)[C@H](CCC(=O)O)NC(=O)CNC1=O` [compound 80] (H-G[S5]GKF[S5][Dap]KKKKFGKA[S5]VGE[S5]AKKGGE-NH2; staple 2-6, 16-20), for which, in “in vitro”, the IC50 at 48 hours is above 200 µg/mL. The “Minimum Inhibitory Concentration (MIC) P. aeruginosa” value in the series with P. aeruginosa worked out at 4 µg/mL. In addition, the “Minimum Inhibitory Concentration (MIC) K. pneumoniae” value with K. pneumoniae is above 64 µg/mL. The “Minimum Inhibitory Concentration (MIC) S. aureus” value in the series with S. aureus is above 64 µg/mL. For the same compound, the “Minimum Inhibitory Concentration (MIC) A. baumannii” value with A. baumannii is 8 µg/mL. Moreover, the “Minimum Inhibitory Concentration (MIC) E. coli” value in the series on E. coli was 8 µg/mL.
In the series “in vitro”, `CC(C)[C@@H]1NC(=O)[C@@](C)(NC(=O)[C@H](C)NC(=O)[C@H](CCCCN)NC(=O)CNC(=O)[C@H](Cc2ccccc2)NC(=O)[C@H](CCCCN)NC(=O)[C@H](CCCCN)NC(=O)[C@H](CN)NC(=O)[C@H](CCCCN)NC(=O)[C@H](CCCCN)NC(=O)[C@]2(C)CCCC=CCCC[C@](C)(NC(=O)CN)C(=O)NCC(=O)N[C@@H](CCCCN)C(=O)N[C@@H](Cc3ccccc3)C(=O)N2)CCCC=CCCC[C@@](C)(C(=O)N[C@@H](C)C(=O)N[C@@H](CCCCN)C(=O)N[C@@H](CCCCN)C(=O)NCC(=O)NCC(=O)N[C@@H](CCC(=O)O)C(N)=O)NC(=O)[C@H](CCC(=O)O)NC(=O)CNC1=O` [compound 81] (H-G[S5]GKF[S5]KK[Dap]KKFGKA[S5]VGE[S5]AKKGGE-NH2; staple 2-6, 16-20) returned a half-maximal inhibitory concentration (IC50) at 48 hours above 200 µg/mL. Further, in the series on P. aeruginosa, the “Minimum Inhibitory Concentration (MIC) P. aeruginosa” value is 16 µg/mL. The “Minimum Inhibitory Concentration (MIC) K. pneumoniae” value with K. pneumoniae turned out to be 64 µg/mL. In addition, in the series with S. aureus, the “Minimum Inhibitory Concentration (MIC) S. aureus” value is above 64 µg/mL. Moreover, in the series with A. baumannii, the “Minimum Inhibitory Concentration (MIC) A. baumannii” value was 4 µg/mL. In the series with E. coli, the “Minimum Inhibitory Concentration (MIC) E. coli” value was found to be 8 µg/mL.
For the compound `CC(C)[C@@H]1NC(=O)[C@@](C)(NC(=O)[C@H](C)NC(=O)[C@H](CCCCN)NC(=O)CNC(=O)[C@H](Cc2ccccc2)NC(=O)[C@H](CCCCN)NC(=O)[C@H](CCCCN)NC(=O)[C@H](CN)NC(=O)[C@H](CCCCN)NC(=O)[C@H](CN)NC(=O)[C@]2(C)CCCC=CCCC[C@](C)(NC(=O)CN)C(=O)NCC(=O)N[C@@H](CCCCN)C(=O)N[C@@H](Cc3ccccc3)C(=O)N2)CCCC=CCCC[C@@](C)(C(=O)N[C@@H](C)C(=O)N[C@@H](CCCCN)C(=O)N[C@@H](CCCCN)C(N)=O)NC(=O)[C@H](CCC(=O)O)NC(=O)CNC1=O` [compound 82] (H-G[S5]GKF[S5][Dap]K[Dap]KKFGKA[S5]VGE[S5]AKK-NH2; staple 2-6, 16-20), in “in vitro”, the IC50 at 48 hours amounted to 190 µg/mL (≈ 76.6 µM). Further, the “Minimum Inhibitory Concentration (MIC) P. aeruginosa” value in the series with P. aeruginosa is 2 µg/mL. Besides, the “Minimum Inhibitory Concentration (MIC) K. pneumoniae” value with K. pneumoniae came out at 64 µg/mL. Also, the “Minimum Inhibitory Concentration (MIC) S. aureus” value in the series on S. aureus was above 64 µg/mL. The “Minimum Inhibitory Concentration (MIC) A. baumannii” value in the series on A. baumannii came to 1 µg/mL. For the same compound, the “Minimum Inhibitory Concentration (MIC) E. coli” value in the series on E. coli was determined as 4 µg/mL.
`CC(C)[C@@H]1NC(=O)[C@@](C)(NC(=O)[C@H](C)NC(=O)[C@H](CCCCN)NC(=O)CNC(=O)[C@H](Cc2ccccc2)NC(=O)[C@H](CCCCN)NC(=O)[C@H](CCCCN)NC(=O)[C@H](CN)NC(=O)[C@H](CCCCN)NC(=O)[C@H](CN)NC(=O)[C@]2(C)CCCC=CCCC[C@](C)(NC(=O)CN)C(=O)NCC(=O)N[C@@H](CCCCN)C(=O)N[C@@H](Cc3ccccc3)C(=O)N2)CCCC=CCCC[C@@](C)(C(=O)N[C@@H](C)C(=O)N[C@@H](CCCCN)C(=O)N[C@@H](CCCCN)C(=O)NCC(=O)NCC(=O)N[C@@H](CCC(=O)O)C(N)=O)NC(=O)[C@H](CCC(=O)O)NC(=O)CNC1=O` [compound 83] (H-G[S5]GKF[S5][Dap]K[Dap]KKFGKA[S5]VGE[S5]AKKGGE-NH2; staple 2-6, 16-20): in “in vitro”, the IC50 at 48 hours is above 200 µg/mL. The “Minimum Inhibitory Concentration (MIC) P. aeruginosa” value in the series on P. aeruginosa came out at 32 µg/mL. For the same compound, the “Minimum Inhibitory Concentration (MIC) K. pneumoniae” value in the series with K. pneumoniae was above 64 µg/mL. Further, the “Minimum Inhibitory Concentration (MIC) S. aureus” value in the series with S. aureus was above 64 µg/mL. The “Minimum Inhibitory Concentration (MIC) A. baumannii” value with A. baumannii came out at 64 µg/mL. Also, in the series with E. coli, the “Minimum Inhibitory Concentration (MIC) E. coli” value is 64 µg/mL.
Compound `CC(C)[C@@H]1NC(=O)[C@@](C)(NC(=O)[C@H](C)NC(=O)[C@H](CCCCN)NC(=O)CNC(=O)[C@H](Cc2ccccc2)NC(=O)[C@H](CCCCN)NC(=O)[C@H](CCCCN)NC(=O)[C@H](CCCCN)NC(=O)[C@H](CO)NC(=O)[C@H](CN)NC(=O)[C@]2(C)CCCC=CCCC[C@](C)(NC(=O)CN)C(=O)NCC(=O)N[C@@H](CCCCN)C(=O)N[C@@H](Cc3ccccc3)C(=O)N2)CCCC=CCCC[C@@](C)(C(=O)N[C@@H](C)C(=O)N[C@@H](CCCCN)C(=O)N[C@@H](CCCCN)C(N)=O)NC(=O)[C@H](CCC(=O)O)NC(=O)CNC1=O` [compound 85] (H-G[S5]GKF[S5][Dap]SKKKFGKA[S5]VGE[S5]AKK-NH2; staple 2-6, 16-20) showed a half-inhibitory concentration (IC50) at 48 hours in the series “in vitro” above 200 µg/mL. For the same compound, the “Minimum Inhibitory Concentration (MIC) P. aeruginosa” value in the series with P. aeruginosa is 2 µg/mL. Further, in the series on K. pneumoniae, the “Minimum Inhibitory Concentration (MIC) K. pneumoniae” value came out at 16 µg/mL. In addition, the “Minimum Inhibitory Concentration (MIC) S. aureus” value in the series on S. aureus amounted to 64 µg/mL. In addition, the “Minimum Inhibitory Concentration (MIC) A. baumannii” value in the series on A. baumannii turned out to be 0.5 µg/mL. Also, the “Minimum Inhibitory Concentration (MIC) E. coli” value with E. coli turned out to be 2 µg/mL.
